# Legend:
# [1] = test system: NCI-H1666 cells; assay: Apoptosis by annexin V staining and FACS, wild-type EGFR cells; format: cell-based; details: wild-type EGFR cell line, 1 μM Tarceva® + 1 μM compound, 48 hrs
# Protocol: Apoptosis was analyzed by FACS analysis after Annexin V staining and propidium iodide staining of DNA, and by Western blotting tracking caspase cascade activation. […] The cell lysates were subjected to Western blotting with anti-caspase-8, anti-caspase-3, anti-caspase-9 and anti-PARP antibodies to detect cleavage. NCI-H1650 and H3255 cells expressing mutant EGFR were used as a positive control in the apoptosis studies.
# [2] = target: T1, wild type human EGFR (Homo sapiens, UniProt P00533); assay: Western blot of EGFR phosphorylation in NE91 cells (FIG. 6A); format: cell-based
# T1 construct: expressed in transfected cells; host or cells: NE91 (mouse fibroblasts)
# Protocol: (§1) Total EGFR levels were measured as a control.
# Studies measuring total EGFR phosphorylation and phosphorylation of different tyrosines, cell lines NE91, NCI-H1666 and A549 expressing wild type EGFR were treated with the target compounds for 3 hours followed by either induction with 50 ng/ml EGF for 15 min or no EGF induction. The cell lysates were subjected to the immunoprecipitation with anti-EGFR antibodies followed by Western blotting with anti-pY99 (total phospho-tyrosine), anti-pY845, anti-pY1045, anti-pY 1068 and/or anti-pY1173 antibodies.
# [3] = target: T2, L858R EGFR (Homo sapiens, UniProt P00533, L858R); assay: Western blot of EGFR phosphorylation in mouse fibroblasts expressing L858R EGFR (FIG. 6B); format: cell-based
# T2 construct: expressed in transfected cells; host or cells: mouse fibroblasts
# Protocol: as §1
# That is, while the binding affinity of the compounds tested in non-mutated EGFR defined by the cavity described above (and when Leu is present in the 858 position), when the single mutation is introduced such that Leu-858 is replaced by Arg-858—the binding affinity drops dramatically. […] Accordingly, MMCs may be characterized as having a higher binding constant (lower dissociation constant) for non-mutated vs. L858R mutated EGFR.
# [4] = test system: NE91 cells; assay: Anchorage independent growth, soft agar colony formation; format: cell-based, mouse
# Protocol: Studies on the effects of the target compounds on anchorage-independent growth of tumor cells used four different cell lines, A549, Calu-3, NE91 and T6-17, which have different levels of EGFR molecules on the cell surface. […] Cells were analyzed for their effects on anchorage-independent growth using soft agar assays described previously in Qian, et al., “Inhibition of p185neu kinase activity and cellular transformation of co-expression of a truncated neu protein,” Oncogene, 13: 2149-2157 (1996). The cells were plated in triplicate in 0.4% agar-HBBS and allowed to grow for 2 to 3 weeks. The cells will be fed with 0.5 ml media containing compounds on the day after plating and once a week thereafter. The colonies were stained with the HBSS solution containing 1 mg/ml of P-iodonitrotetrazolium violet (2-[4-iodophenyl]-3-[4-nitrophenyl]-5-phenyltetrazolium chloride). The number of the colonies formed were counted.
# [5] = test system: AsPC1 pancreatic tumors; assay: In vivo tumor growth in mice with AsPC1 pancreatic tumors; details: for effect on tumor growth, single agent: 15 mg/kg, FIG. 10
# Description: FIG. 10 graphically represents the results of in vivo testing of EEO3 (A) and EEO4 (B) in mice with AsPC1 tumors.
Structure (SMILES),apoptotic activity of Tarceva® in the presence of the MMC [1],"receptor phosphorylation ([2]; compound alone, track 3)","Tarceva®-induced inhibition of EGFR phosphorylation ([2]; in combination with Tarceva®, track 4)",total EGFR levels ([2]; in the presence of the compound),"activation of EGFR phosphorylation ([3]; cell line expressing mutant EGFR, compound alone, FIG. 6B lanes 1 and 2)","enhancement of Tarceva®-induced inhibition of EGFR phosphorylation ([3]; mutant cell line, FIG. 6B lanes 7 and 8)","inhibitory effect on cell growth in combination with Tarceva® ([4]; 0.25 μM, FIG. 8A)","anchorage independent cell growth, single agent ([4]; compound alone, 0.25 μM, FIG. 8A)","enhancement of the inhibitory effect of Tarceva® on colony formation ([4]; with a low concentration of Tarceva®, 1 nM, FIG. 8B)","effect on tumor growth, single agent [5]","antitumor effect of the combination with Tarceva® ([5]; Tarceva® with 15 mg/kg of EEO3, FIG. 10)","inhibitory effect on colony formation, single agent at low concentration ([4]; low concentration, 1 nM, FIG. 8B)"
Nc1ccccc1Sc1nc(-c2ccccc2N)ccc1[N+](=O)[O-] [EEN6A],increased to the level observed with Tarceva® alone in the mutant cell line,,,,,,,,,,,
CC1(C)Cc2cccc(C(=O)N3CCC(O)(c4ccc(Cl)cc4)CC3)c2O1 [EEO3],,enhancement of receptor phosphorylation,enhancement of Tarceva®-induced inhibition of EGFR phosphorylation,No changes in total EGFR levels,does not activate EGFR phosphorylation,does not enhance,enhanced the inhibitory effect on cell growth,stimulated cell growth,even more dramatic,weak antitumor effect similar to Tarceva® alone,significant synergistic antitumor effect,
"C#Cc1cccc(Nc2ncnc3cc(OCCOC)c(OCCOC)cc23)c1 [Tarceva®, erlotinib, reference compound]",,,,,,,,,,only a modest effect on tumor growth,,does not have any inhibitory effect by itself

# From US9295676B2, “Mutation mimicking compounds that bind to the kinase domain of EGFR” (The Trustees Of The University of Pennsylvania, priority 2011, dated 2016)
